Like-named read-outs stand apart in the source and are kept apart here.
Experiments:
[1] = system: Nrf2 (Keap1-NRF2 nuclear translocation); experiment: U2OS translocation assay (PathHunter U2OS Keap1-NRF2 Nuclear Translocation Cell Line); assay type: cell-based
Method in brief: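 Enzyme-fragment complementation read-out: luminescence after 60 min of detection reagent at room temperature, following a 3 h, 37° C compound exposure of engineered U2OS Keap1-NRF2 translocation cells (1% FBS medium). Signal scaled from 1% DMSO basal to 10 μM andrographolide maximum.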

[2] = target: T1, Keap1 (A321-C624) (h) (Homo sapiens, UniProt Q14145); experiment: Surface Plasmon Resonance binding assay to Kelch domain of KEAP1; details: Biacore T200, 25° C., immobilized His-Thromb-KEAP1(A321-C624), single cycle kinetics, KD=kd/ka from 1:1 fit; read-out: Keap1 (A321-C624) (h) direct/SPR (KD)
T1 construct: His-Thromb-KEAP1(A321-C624) acquired from Novalix (batch PU-P01) was immobilized covalently by amine coupling; His tag (N); thrombin cleavage site (Thromb) (N); purchased Novalix batch PU-P01
Protocol: EXAMPLE 85: SURFACE PLASMON RESONANCE
Binding assay to Kelch domain of KEAP1 was performed by Surface Plasmon Resonance (SPR) on a Biacore T200 (GE Healthcare) at 25° C. using CM5 chip. His-Thromb-KEAP1(A321-C624) acquired from Novalix (batch PU-P01) was immobilized covalently by amine coupling using standard wizard protocol, at a concentration of 20 μg/mL in sodium acetate pH 5.5. The ligand was captured until 1250 RU was reached. Amine blank is used as the reference flow cell. Binding of analyte to the ligand was monitored in real time with associations of 180 seconds and a dissociation of 720 seconds. Association (ka) and dissociation (kd) rates were fitted with a simple 1:1 kinetic interaction model using Biacore T200 Evaluation Software (GE Healthcare). The equilibrium constant (KD=kd/ka) was calculated from these fitted parameters. […] The Biacore binding assay was performed with a flowrate of 50 μL/min using a running buffer of 10 mM HEPES (pH 7.4), 150 mM NaCl, 3 mM EDTA, 1 mM TCEP, 0.05% P20,5% DMSO. Double subtraction was used by subtracting both reference flow cell and previous blank cycle (with running buffer). Solvent correction was applied to correct DMSO bulk effect.

[3] = Homo sapiens, U2OS, 3 h, read-out: CELLULAR U2OS EC50 (nM), U2OS Keap1-NRF2 nuclear translocation cells, 3 h incubation, luminescence, normalized between 1% DMSO and 10 μM andrographolide
[4] = read-out: CELLULAR U2OS EC50, U2OS Keap1-NRF2 nuclear translocation cells, 3 h incubation, luminescence, normalized between 1% DMSO and 10 μM andrographolide

T1 sequence (Q14145 321-624): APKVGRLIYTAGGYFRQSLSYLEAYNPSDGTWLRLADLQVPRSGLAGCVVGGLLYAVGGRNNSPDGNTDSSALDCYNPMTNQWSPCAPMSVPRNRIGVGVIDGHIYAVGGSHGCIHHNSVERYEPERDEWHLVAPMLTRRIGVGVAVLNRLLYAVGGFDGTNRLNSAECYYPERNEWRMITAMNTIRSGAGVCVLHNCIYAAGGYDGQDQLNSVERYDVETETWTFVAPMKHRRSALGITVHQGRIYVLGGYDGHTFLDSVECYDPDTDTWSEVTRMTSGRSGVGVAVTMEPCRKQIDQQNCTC

Cc1ccc2cc1CN1Cc3cc(ccc3OS1(=O)=O)N(C)C(=O)CCCn1nnc3c(C)c(ccc31)C2CC(=O)O (stereo not drawn) [Example 43, [4,21,31-Trimethyl-20,27,27-trioxo-26-oxa-27λ^6-thia-1,14,15,16,21-pentaazahexacyclo[20.5.3.1^3,70.1^9,130.0^12,160.0^25,29]dotriaconta-3(32),4,6,9(31),10,12,14,22,24,29-decaen-8-yl]acetic acid] was tested. Which EC50 [1, 3] did it give?
Its EC50 is 570 nM.

What about the Kd [2] of the same molecule?
The Kd was 2.92 nM.

How did the EC50 [1, 3] turn out when COc1ccc2cc1CN1Cc3cc(ccc3OS1(=O)=O)OCCOCCn1nnc3c(C)c(ccc31)C2CC(=O)O (single isomer, unassigned) [Example 59a, [4-Methoxy-32-methyl-28,28-dioxo-19,22,27-trioxa-28λ^6-thia-1,14,15,16-tetraazahexacyclo[21.5.3.1^3,70.1^9,130.0^12,160.0^26,30]tritriaconta-3(33),4,6,9(32),10,12,14,23,25,30-decaen-8-yl]acetic acid] was run?
The EC50 was 311 nM.

And the Kd [2]?
The Kd was 5.07 nM.

How did the EC50 [1, 3] turn out when Cc1ccc2cc1[C@@H](C)N1Cc3cc(ccc3OS1(=O)=O)OCCN(C)CCCn1nnc3c(C)c(ccc31)[C@@H]2CC(=O)O [Example 34b, [(2R,8R)-2,4,20,33-tetramethyl-29,29-dioxo-23,28-dioxa-29λ^6-thia-1,14,15,16,20-pentaazahexacyclo[22.5.3.1^3,70.1^9,130.0^12,160.0^27,31]tetratriaconta-3(34),4,6,9(33),10,12,14,24,26,31-decaen-8-yl]acetic acid] was run?
Its EC50 is 31.1 nM.

What about the Kd [2] of the same molecule?
The Kd was 1.85 nM.

How did the EC50 [1, 3] turn out when COc1cc2cc(c1Cl)CN1Cc3cc(ccc3OS1(=O)=O)OCCCCn1nnc3c(C)c(ccc31)C2CC(=O)O (single isomer, unassigned) [Example 38b, [4-Chloro-5-methoxy-31-methyl-27,27-dioxo-21,26-dioxa-27λ^6-thia-1,14,15,16-tetraazahexacyclo[20.5.3.1^3,70.1^9,130.0^12,160.0^25,29]dotriaconta-3(32),4,6,9(31),10,12,14,22,24,29-decaen-8-yl]acetic acid] was run?
Its EC50 is greater than 3160 nM.

And the Kd [2]?
Its Kd is 604 nM.

Which results are given for Cc1ccc2cc1CN1Cc3cc(c(Cl)cc3OS1(=O)=O)OCCCCn1nnc3c(C)c(cc(Cl)c31)[C@@H]2CC(=O)O [Example 52, [(8R)-11,23-Dichloro-4,31-dimethyl-27,27-dioxo-21,26-dioxa-27λ^6-thia-1,14,15,16-tetraazahexacyclo[20.5.3.1^3,70.1^9,130.0^12,160.0^25,29]dotriaconta-3(32),4,6,9(31),10,12,14,22,24,29-decaen-8-yl]acetic acid]?
EC50 [1, 3]: 180 nM; Kd [2]: 8.86 nM

Which results are given for COc1cc2c3cc1OCCCCn1nnc4c(C)c(ccc41)C(CC(=O)O)c1ccc(C)c(c1)CN(C3)S(=O)(=O)O2 (single isomer, unassigned) [Example 25a, [23-Methoxy-4,31-dimethyl-27,27-dioxo-21,26-dioxa-27λ^6-thia-1,14,15,16-tetraazahexacyclo[20.5.3.1^3,70.1^9,130.0^12,160.0^25,29]dotriaconta-3(32),4,6,9(31),10,12,14,22,24,29-decaen-8-yl]acetic acid]?
EC50 [1, 4]: 14 nM; Kd [2]: 0.562 nM

With COCCC1CCOc2ccc3c(c2)CN([C@H](C)c2cc(ccc2C)[C@@H](CC(=O)O)c2ccc4c(nnn4C1)c2C)S(=O)(=O)O3 (single isomer, unassigned) [Example 24d] as the molecule, how does the EC50 [1, 4] read?
The EC50 was 36.4 nM.

And the Kd [2]?
Its Kd is 4.32 nM.

Cc1ccc2cc1[C@@H](C)N1Cc3cc(ccc3OS1(=O)=O)OCCCN(C)CCn1nnc3c(C)c(ccc31)[C@H]2CC(=O)O [Example 21a, [(2R,8S)-2,4,19,33-Tetramethyl-29,29-dioxo-23,28-dioxa-29λ^6-thia-1,14,15,16,19-pentaazahexacyclo[22.5.3.1^3,70.1^9,130.0^12,160.0^27,31]tetratriaconta-3(34),4,6,9(33),10,12,14,24,26,31-decaen-8-yl]acetic acid] was tested. Which EC50 [1, 3] did it give?
The EC50 was 10.9 nM.

And the Kd [2]?
The Kd was 2.55 nM.

How did the EC50 [1, 3] turn out when COc1cc2cc3c1OS(=O)(=O)N(C3)[C@H](C)c1cc(ccc1C)[C@H](CC(=O)O)c1ccc3c(nnn3CCCCO2)c1C [Example 23b, [(2R,8S)-24-methoxy-2,4,31-trimethyl-27,27-dioxo-21,26-dioxa-27λ^6-thia-1,14,15,16-tetraazahexacyclo[20.5.3.1^3,70.1^9,130.0^12,160.0^25,29]dotriaconta-3(32),4,6,9(31),10,12,14,22,24,29-decaen-8-yl]acetic acid] was run?
Its EC50 is 344 nM.

What about the Kd [2] of the same molecule?
Its Kd is 8.8 nM.

Which results are given for COc1cc2cc(c1)C(CC(=O)O)c1ccc3c(nnn3CCCCOc3ccc4c(c3)CN(C2)S(=O)(=O)O4)c1C (single isomer, unassigned) [Example 8a, [5-Methoxy-31-methyl-27,27-dioxo-21,26-dioxa-27λ^6-thia-1,14,15,16-tetraazahexacyclo[20.5.3.1^3,70.1^9,130.0^12,160.0^25,29]dotriaconta-3(32),4,6,9(31),10,12,14,22,24,29-decaen-8-yl]acetic acid]?
EC50 [1, 3]: 986 nM; Kd [2]: 62.2 nM

Which results are given for [2H]C([2H])(C(=O)O)[C@H]1c2ccc(C)c(c2)CN2Cc3cc(ccc3OS2(=O)=O)OCCCCn2nnc3c(C)c1ccc32 [Example 55b, [(8S)-4,31-Dimethyl-27,27-dioxo-21,26-dioxa-27λ^6-thia-1,14,15,16-tetraazahexacyclo[20.5.3.1^3,70.1^9,130.0^12,160.0^25,29]dotriaconta-3(32),4,6,9(31),10,12,14,22,24,29-decaen-8-yl](^2H2)acetic acid]?
EC50 [1, 3]: 15.8 nM; Kd [2]: 2.5 nM

How did the EC50 [1, 4] turn out when Cc1ccc2cc1CN1Cc3cc(ccc3OS1(=O)=O)OCCCCCn1nnc3c(C)c(ccc31)C2CC(=O)O (single isomer, unassigned) [Example 1a, [4,32-dimethyl-28,28-dioxo-22,27-dioxa-28λ^6-thia-1,14,15,16-tetraazahexacyclo[21.5.3.1^3,70.1^9,130.0^12,160.0^26,30]tritriaconta-3(33),4,6,9(32),10,12,14,23,25,30-decaen-8-yl]acetic acid] was run?
The EC50 was 10.1 nM.

And the Kd [2]?
The Kd was 0.181 nM.

With COc1cc2cc3c1OS(=O)(=O)N(Cc1cc(ccc1C)C(CC(=O)O)c1ccc4c(nnn4CCCCO2)c1C)C3 (single isomer, unassigned) [Example 16a, [24-Methoxy-4,31-dimethyl-27,27-dioxo-21,26-dioxa-27λ^6-thia-1,14,15,16-tetraazahexacyclo[20.5.3.1^3,70.1^9,130.0^12,160.0^25,29]dotriaconta-3(32),4,6,9(31),10,12,14,22,24,29-decaen-8-yl]acetic acid] as the molecule, how does the EC50 [1, 4] read?
The EC50 was 871 nM.

And the Kd [2]?
The Kd was 4.03 nM.

Which EC50 [1, 3] does the source give for Cc1ccc2cc1[C@@H](C)N1Cc3cc(ccc3OS1(=O)=O)OCCN(C)CCCn1nnc3c(C)c(ccc31)[C@H]2CC(=O)O [Example 34a, [(2R,8S)-2,4,20,33-tetramethyl-29,29-dioxo-23,28-dioxa-29λ^6-thia-1,14,15,16,20-pentaazahexacyclo[22.5.3.1^3,70.1^9,130.0^12,160.0^27,31]tetratriaconta-3(34),4,6,9(33),10,12,14,24,26,31-decaen-8-yl]acetic acid] here?
Its EC50 is 2.66 nM.

What about the Kd [2] of the same molecule?
The Kd was 0.49 nM.

What does the source list for Cc1ccc2cc1CN1Cc3cc(ccc3OS1(=O)=O)OCCN(c1ccccc1)CCn1nnc3c(C)c(ccc31)C2CC(=O)O (single isomer, unassigned) [Example 58a, [4,32-Dimethyl-28,28-dioxo-19-phenyl-22,27-dioxa-28λ^6-thia-1,14,15,16,19-pentaazahexacyclo[21.5.3.1^3,70.1^9,130.0^12,160.0^26,30]tritriaconta-3(33),4,6,9(32),10,12,14,23,25,30-decaen-8-yl]acetic acid]?
EC50 [1, 4]: 90.4 nM; Kd [2]: 4.66 nM
